Patent publication US20040162235A1, “Delivery of siRNA to cells using polyampholytes” (priority 2003, published 2004)
Where two headings read alike, the source gives them in different places. *1 amine or outer side, *2 acyl side, *3 side chain or, on linkers, in order; H or OH if unused. Where a SMILES comes first, the peptide text is derived from it. Where no end group is shown, it is not given here. The star is where a group is joined. Suc = O=C(CCC(=O)[*:2])[*:1]; X1 = C/C(C(=O)O)=C(\C)C(=O)*

Assays:
[1] = Red blood cell (RBC) hemolysis assay; type: cell-based; conditions: 37° C., read-out: Percent Hemolysis; for hemolysis at 30 min: red blood cells (washed, harvested from whole blood)
Experimental: C. […] RBCs were harvested by centrifuging whole blood for 4 min. They were washed three times with 100 mM dibasic sodium phosphate at the desired pH, and resuspended in the same buffer to yield the initial volume. They were diluted 10 times in the same buffer, and 200 μL of this suspension was used for each tube. This yields […] RBCs per tube. Each tube contained 800 μL of buffer, 200 μL of the RBC suspension, and the peptide with or without polymer. Each sample was then repeated to verify reproducibility. The tubes were incubated for 30 minutes in a 37° C. water bath. They were spun for 5 min at full speed in the microcentrifuge. Lysis was determined by measuring the absorbance of the supernatant at 541 nm, reflecting the amount of hemoglobin that had been released into the supernatant. Percent hemolysis was calculated assuming 100% lysis to be measured by the hemoglobin released by the red blood cells in water; controls of RBCs in buffer with no peptide were also run.

[2] = Lability at pH 5: conversion of maleamic acid to amine and anhydride, followed by TNBS; type: physicochemical; conditions: sodium acetate buffer pH 5
Experimental: A. DM-poly-L-lysine: Dimethyl maleamic modified poly-L-lysine (10 mg/mL) was incubated in 10 mM sodium acetate buffer pH 5. At various times, aliquots (10 μg) were removed and added to 0.5 mL of 100 mM borax solution containing 0.4 mM trinitrobenzenesulfonate (TNBS). After 30 min, the absorbance of the solution at 420 nm was measured. To determine the concentration of amines at each time point, the extinction coefficient was determined for the product of TNBS and poly-L-lysine. Using this extinction coefficient we were able to calculate the amount of amines and maleamic groups at each time point. A plot of In (At/A0) as a function of time was a straight line whose slope was the negative of the rate constant for the conversion of maleamic acid to amine and anhydride, where At is the concentration of maleamic acid at a time t and A0 is the initial concentration of maleamic acid. For two separate experiments we calculated rate constants of […] which correspond to half lives of roughly 10 and 4 minutes, respectively.
B. DM-KL3: Dimethyl maleamic modified KL3 (0.1 mg/mL) was incubated in 40 mM sodium acetate buffer pH 5 and 1 mM cetyltrimetylammonium bromide. At various times, 10 μg aliquots were removed and added to 0.05 mL 1 M borax solution containing 4 mM TNBS. After 30 min, the absorbance of the solution at 420 nm was measured. […]

Molecule | hemolysis ([1]; pH 5.4, 30 minutes) [%] | hemolysis ([1]; pH 7.5, 30 minutes) [%] | half-life [2] [min] | rate constant for the conversion of maleamic acid to amine and anhydride [2] [min⁻¹] | hemolysis at 30 min ([1]; pH 5.4, 30 minutes) [%] | hemolysis at 30 min ([1]; pH 7.5, 30 minutes) [%]
C/C(C(=O)O)=C(\C)C(=O)NCCCC[C@H](NC(=O)/C(C)=C(/C)C(=O)O)C(=O)N[C@@H](CC(C)C)C(=O)N[C@@H](CC(C)C)C(=O)N[C@@H](CCCCNC(=O)/C(C)=C(/C)C(=O)O)C(=O)N[C@@H](CC(C)C)C(=O)N[C@@H](CC(C)C)C(=O)N[C@@H](CC(C)C)C(=O)N[C@@H](CCCCNC(=O)/C(C)=C(/C)C(=O)O)C(=O)N[C@@H](CC(C)C)C(=O)N[C@@H](Cc1c[nH]c2ccccc12)C(=O)N[C@@H](CC(C)C)C(=O)N[C@@H](CCCCNC(=O)/C(C)=C(/C)C(=O)O)C(=O)N[C@@H](CC(C)C)C(=O)N[C@@H](CC(C)C)C(=O)N[C@@H](CCCCNC(=O)/C(C)=C(/C)C(=O)O)C(=O)N[C@@H](CC(C)C)C(=O)N[C@@H](CC(C)C)C(=O)N[C@@H](CC(C)C)C(=O)N[C@@H](CCCCNC(=O)/C(C)=C(/C)C(=O)O)C(=O)N[C@@H](CC(C)C)C(=O)N[C@@H](CC(C)C)C(=O)O [DM-KL3] (X1-K(X1)LLK(X1)LLLK(X1)LWLK(X1)LLK(X1)LLLK(X1)LL-OH; N-terminus and C-terminus assumed) | 37 | 4.3 | ~8 | 0.087 | – | –
CC[C@H](C)[C@H](NC(=O)CN)C(=O)NCC(=O)N[C@@H](C)C(=O)N[C@H](C(=O)N[C@@H](CC(C)C)C(=O)N[C@@H](CCCCN)C(=O)N[C@H](C(=O)N[C@@H](CC(C)C)C(=O)N[C@H](C(=O)N[C@H](C(=O)NCC(=O)N[C@@H](CC(C)C)C(=O)N1CCC[C@H]1C(=O)N[C@@H](C)C(=O)N[C@@H](CC(C)C)C(=O)N[C@H](C(=O)N[C@@H](CO)C(=O)N[C@@H](Cc1c[nH]c2ccccc12)C(=O)N[C@H](C(=O)N[C@@H](CCCCN)C(=O)N[C@@H](CCCNC(=N)N)C(=O)N[C@@H](CCCCN)C(=O)N[C@@H](CCCNC(=N)N)C(=O)N[C@@H](CCC(N)=O)C(=O)N[C@@H](CCC(N)=O)C(N)=O)[C@@H](C)CC)[C@@H](C)CC)[C@@H](C)O)[C@@H](C)O)C(C)C)C(C)C [Melittin, reference compound] | – | – | – | – | 85 | 92
KLLKLLLKLWLKLLKLLLKLL [KL3] | 83 | 62 | – | – | – | –
CC(C)C[C@H](NC(=O)[C@H](CC(C)C)NC(=O)[C@H](CCCCNC(=O)CCC(=O)O)NC(=O)[C@H](CC(C)C)NC(=O)[C@H](CC(C)C)NC(=O)[C@H](CC(C)C)NC(=O)[C@H](CCCCNC(=O)CCC(=O)O)NC(=O)[C@H](CC(C)C)NC(=O)[C@H](CC(C)C)NC(=O)[C@H](CCCCNC(=O)CCC(=O)O)NC(=O)[C@H](CC(C)C)NC(=O)[C@H](Cc1c[nH]c2ccccc12)NC(=O)[C@H](CC(C)C)NC(=O)[C@H](CCCCNC(=O)CCC(=O)O)NC(=O)[C@H](CC(C)C)NC(=O)[C@H](CC(C)C)NC(=O)[C@H](CC(C)C)NC(=O)[C@H](CCCCNC(=O)CCC(=O)O)NC(=O)[C@H](CC(C)C)NC(=O)[C@H](CC(C)C)NC(=O)[C@H](CCCCNC(=O)CCC(=O)O)NC(=O)CCC(=O)O)C(=O)O [Succinyl-KL3] (Suc-K(Suc)LLK(Suc)LLLK(Suc)LWLK(Suc)LLK(Suc)LLLK(Suc)LL-OH; N-terminus and C-terminus assumed) | 2 | 1.3 | – | – | – | –
